Reference: PubChem BioAssay (NCI)
Values joined by “and” are separate entries in the source; they are usually repeats but may differ in a detail not shown here. Equal entries are not always repeated.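 48-hour exposure; five concentrations; linearly interpolated endpoints. GI50 = concentration required for 50% inhibition of growth. Definition used: TGI = concentration required for complete inhibition of growth.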

Key:
Assay in all cases: NCI-60 cell line screen, 48 h
LOX IMVI melanoma = tested on: LOX IMVI melanoma
UO-31 renal = tested on: UO-31 renal
SK-MEL-28 melanoma = tested on: SK-MEL-28 melanoma
MDA-MB-231 breast = tested on: MDA-MB-231 breast
EKVX NSCLC = tested on: EKVX NSCLC
U251 CNS = tested on: U251 CNS
IGROV1 ovarian = tested on: IGROV1 ovarian
SNB-19 CNS = tested on: SNB-19 CNS
RXF 393 renal = tested on: RXF 393 renal
HS 578T breast = tested on: HS 578T breast

SMILES	GI50 (LOX IMVI melanoma)	TGI (LOX IMVI melanoma)	GI50 (UO-31 renal)	TGI (UO-31 renal)	GI50 (SK-MEL-28 melanoma)	TGI (SK-MEL-28 melanoma)	TGI (MDA-MB-231 breast)	GI50 (EKVX NSCLC)	TGI (EKVX NSCLC)	GI50 (U251 CNS)	TGI (U251 CNS)	GI50 (IGROV1 ovarian)	TGI (IGROV1 ovarian)	GI50 (SNB-19 CNS)	TGI (SNB-19 CNS)	TGI (RXF 393 renal)	TGI (HS 578T breast)	GI50 (MDA-MB-231 breast)	GI50 (RXF 393 renal)	GI50 (HS 578T breast)
C[C@@H]1C[C@@H](O)[C@]2(O)O[C@@H]3C[C@@]4(C=O)[C@@H](CC[C@@H]5[C@@H]4CC[C@]4(C)[C@@H](C6=CC(=O)OC6)CC[C@]54O)C[C@H]3O[C@@H]2O1	0.0472 µM	0.0624 µM and 0.165 µM and 0.0884 µM	0.0143 µM	0.0559 µM and 0.0454 µM	0.167 µM and 0.0409 µM	0.143 µM and 0.683 µM and 0.354 µM	0.236 µM	0.0104 µM	0.0964 µM and 0.104 µM	0.0449 µM and 0.0153 µM	0.0725 µM and 0.158 µM and 0.0697 µM	0.033 µM and 0.00727 µM	0.0474 µM and 0.175 µM and 0.0516 µM	0.101 µM and 0.0197 µM	0.145 µM and 0.217 µM and 0.184 µM	0.0599 µM	–	–	–	–
CC[C@H](C)N(CCN)C(=O)c1cc2ccccc2c(-c2ccccc2Cl)n1	–	27.7 µM	–	25.3 µM	–	27 µM	–	–	25.4 µM	–	24.4 µM	–	26.2 µM	–	30.2 µM	19.7 µM	–	–	–	–
O=C(CNc1nncs1)NO	–	–	–	> 100 µM	–	> 100 µM	–	–	> 100 µM	–	> 100 µM	–	> 100 µM	–	> 100 µM	> 100 µM	–	–	–	–
N#CCC1COc2ccccc2O1 (configuration not stated)	–	> 10 µM	–	–	–	> 10 µM	> 10 µM	–	–	–	> 10 µM	–	> 10 µM	–	> 10 µM	–	> 10 µM	–	–	–
CC1=C(C)C(=O)c2c(cc3ccc4ccccc4n23)C1=O	–	> 100 µM	–	> 100 µM	–	> 100 µM	–	–	> 100 µM	–	> 100 µM	–	> 100 µM	–	> 100 µM	> 100 µM	–	–	–	–
CCOC(=O)c1c2c(n3ccc(NC(=O)CCN4CCCC4)cc13)C(=O)c1ncccc1C2=O	–	–	0.724 µM	2.81 µM	16.1 µM	35.9 µM	3.83 µM	1.46 µM	3.58 µM	1.27 µM	2.82 µM	1.01 µM	3.27 µM	1.17 µM	3.54 µM	3.36 µM	–	1.84 µM	1.41 µM	–
Cc1ccc(-[n+]2c3cc(N)c(C)cc3nc3cc(C)c(Nc4ccccc4)cc32)cc1	–	–	0.27 µM	1.03 µM	0.266 µM	1.33 µM	–	0.0651 µM	1.03 µM	–	–	0.166 µM	1.54 µM	–	–	–	0.415 µM	–	–	0.0734 µM
O=C(Oc1ccc(Cl)cc1Cl)c1ccccc1Nc1ccnc(C(F)(F)F)c1	–	–	18.1 µM	> 100 µM	–	–	7.92 µM	18.5 µM	40.9 µM	–	–	17.8 µM	> 100 µM	–	–	–	73.9 µM	2.24 µM	–	24.9 µM
CC(=O)O/C=C(/C=C/OC(C)=O)C(C/C=C(\C)C#CC=C(C)C)OC(C)=O (configuration not stated)	–	70.7 µM	–	> 100 µM	–	–	–	–	> 100 µM	–	> 100 µM	–	95.6 µM	–	> 100 µM	–	–	–	–	–
CCOc1ccccc1NC(=O)C(=O)CC(=O)c1c(C)n([O-])c2ccccc2[n+]1=O	–	> 100 µM	–	> 100 µM	–	> 100 µM	–	–	> 100 µM	–	> 100 µM	–	> 100 µM	–	> 100 µM	> 100 µM	–	–	–	–
Cc1ccc(OCC(=O)N2N=C(c3ccccc3)CC2(O)c2ccccc2)cc1 (configuration not stated)	–	> 100 µM	–	> 100 µM	–	> 100 µM	–	–	–	–	34.1 µM	–	> 100 µM	–	> 100 µM	–	–	–	–	–
CCC[CH2][Sn-]([CH2]CCC)([CH2]CCC)[O]c1cc(Cl)c(Cl)cc1Cl	0.175 µM	0.34 µM	–	–	0.167 µM	0.365 µM	–	0.216 µM	0.9 µM	0.179 µM	0.35 µM	0.162 µM	0.379 µM	0.143 µM	0.445 µM	0.509 µM	0.212 µM	–	0.196 µM	0.00467 µM
CNC(P(=O)([O-])[O-])P(=O)([O-])[O-].N.N.[Pt+2]	> 100 µM	> 100 µM	> 100 µM	> 100 µM	> 100 µM	> 100 µM	–	> 100 µM	> 100 µM	> 100 µM	> 100 µM	> 100 µM	> 100 µM	> 100 µM	> 100 µM	> 100 µM	–	–	> 100 µM	–
COc1ccc2cc(C(=O)/C=C/c3cc(OC)c(OC)c(OC)c3)ccc2c1	2.55 µM	11 µM	7.44 µM	15.5 µM	3.91 µM	13.8 µM	15.8 µM	4.05 µM	29.5 µM	1.68 µM	9.48 µM	5.49 µM	18.5 µM	12.9 µM	26.3 µM	–	–	1.02 µM	–	–
CC1=C(C(=O)Nc2c(C)cccc2C)C(c2ccc3c(c2)OCO3)C(C(=O)Nc2c(C)cccc2C)=C(C)N1	–	28.1 µM	–	30.6 µM	–	46 µM	–	–	53.3 µM	–	29.1 µM	–	28.5 µM	–	32 µM	33.9 µM	–	–	–	–
COC(=O)C1CC2(CC3=C1CCCC3)OCCO2 (configuration not stated)	–	> 100 µM	–	> 100 µM	–	> 100 µM	–	–	> 100 µM	–	> 100 µM	–	> 100 µM	–	> 100 µM	> 100 µM	–	–	–	–
Cc1cc2c(c(C#N)c1C)NC(=O)CCC2=O	–	–	–	91.4 µM	–	> 100 µM	–	–	> 100 µM	–	> 100 µM	–	> 100 µM	–	–	> 100 µM	–	–	–	–

SMILES	GI50 (LOX IMVI melanoma)	TGI (LOX IMVI melanoma)	GI50 (UO-31 renal)	TGI (UO-31 renal)	GI50 (SK-MEL-28 melanoma)	TGI (SK-MEL-28 melanoma)	TGI (MDA-MB-231 breast)	GI50 (EKVX NSCLC)	TGI (EKVX NSCLC)	GI50 (U251 CNS)	TGI (U251 CNS)	GI50 (IGROV1 ovarian)	TGI (IGROV1 ovarian)	GI50 (SNB-19 CNS)	TGI (SNB-19 CNS)	TGI (RXF 393 renal)	TGI (HS 578T breast)	GI50 (MDA-MB-231 breast)	GI50 (RXF 393 renal)	GI50 (HS 578T breast)
O=C(O)CSc1n[nH]c(-c2ccc(O)cc2)n1	–	–	–	> 100 µM	–	> 100 µM	–	–	> 100 µM	–	> 100 µM	–	> 100 µM	–	> 100 µM	–	–	–	–	–
Nn1c(-c2ccccc2)nc2ccc(Br)cc2c1=O	–	–	–	> 100 µM	–	> 100 µM	–	–	> 100 µM	–	> 100 µM	–	> 100 µM	–	> 100 µM	–	–	–	–	–
Cc1cc(C)nc(NS(=O)(=O)c2ccc(Nc3c4ccccc4nc4c(C(=O)Nc5ccc(S(=O)(=O)N=C(N)N)cc5)ccc(Cl)c34)cc2)n1	–	34.7 µM	–	73.9 µM	–	–	–	–	> 100 µM	–	34.6 µM	–	–	–	46.7 µM	38.6 µM	–	–	–	–
Cn1c2c(c3ccccc31)CCN(CCCCN1CCc3c(n(C)c4ccccc34)C1=O)C2	–	–	–	> 100 µM	–	> 100 µM	–	–	> 100 µM	–	> 100 µM	–	> 100 µM	–	> 100 µM	> 100 µM	–	–	–	–
O=C1CC(O)C=C1Nc1ccc(Cl)cc1 (configuration not stated)	–	> 100 µM	–	> 100 µM	–	> 100 µM	–	–	60.8 µM	–	> 100 µM	–	> 100 µM	–	> 100 µM	> 100 µM	–	–	–	–
COc1ccc(-c2nc3sc(C)cn3c2/C=C/C(=O)c2cc(OC)c(OC)c(OC)c2)cc1	3.51 µM	> 100 µM	2.27 µM	7.61 µM	–	–	> 100 µM	4.04 µM	> 100 µM	4.04 µM	> 100 µM	1.65 µM	4.33 µM	4.55 µM	> 100 µM	–	–	3.78 µM	–	–
COc1nc(N(C)O)nc(N(C)O)n1	0.895 µM	> 100 µM	1.13 µM	> 100 µM	2.41 µM	> 100 µM	> 100 µM	1.56 µM	> 100 µM	0.716 µM	> 100 µM	0.632 µM	> 100 µM	2.38 µM	> 100 µM	> 100 µM	–	3.54 µM	1.95 µM	–
Cc1nc2c(nc1C)C(=O)c1cc(O)ccc1C2=O	–	> 100 µM	–	> 100 µM	–	> 100 µM	–	–	> 100 µM	–	> 100 µM	–	> 100 µM	–	> 100 µM	> 100 µM	–	–	–	–
O=C(c1ccccc1)C(C(=O)c1ccccc1)C1(O)C(=O)c2ccccc2C1=O	–	> 100 µM	–	> 100 µM	–	> 100 µM	–	–	> 100 µM	–	> 100 µM	–	> 100 µM	–	> 100 µM	0.889 µM	–	–	–	–
Cn1c(=O)nc2n(-c3ccc(Cl)cc3)c3ccc(Cl)cc3nc-2c1=O	–	13.1 µM	–	39.8 µM	–	21.4 µM	–	–	28.7 µM	–	–	–	51.1 µM	–	–	7.93 µM	–	–	–	–
N#CCC(=O)Nc1cccc(C(F)(F)F)c1	–	> 100 µM	–	> 100 µM	–	> 100 µM	–	–	> 100 µM	–	> 100 µM	–	> 100 µM	–	> 100 µM	> 100 µM	–	–	–	–
COc1cc(CCc2ccc(OCCN(C)C)cc2)cc(OC)c1OC	–	> 100 µM	–	> 100 µM	–	> 100 µM	–	–	> 100 µM	–	> 100 µM	–	> 100 µM	–	> 100 µM	> 100 µM	–	–	–	–
Nc1ccn(CCOC(=O)c2ccccc2)c(=O)n1	–	> 100 µM	–	> 100 µM	–	> 100 µM	–	–	> 100 µM	–	> 100 µM	–	> 100 µM	–	–	> 100 µM	–	–	–	–
CCOC(=O)[C@@]1(C)C=C2O[C@@H]3OC4(CCCCC4)O[C@@H]3C2=C2C(O)=CC=C(O)[C@]21C(=O)OC	–	> 68 µM	–	> 68 µM	–	> 68 µM	–	–	> 68 µM	–	> 68 µM	–	> 68 µM	–	> 68 µM	–	–	–	–	–
O=C(c1ccccc1)C(c1ccccc1)C1(O)C(=O)Nc2c(Cl)cc(Cl)cc21 (configuration not stated)	–	42.8 µM	–	38.4 µM	–	34.1 µM	–	–	27.8 µM	–	96.6 µM	–	–	–	55.3 µM	34.4 µM	–	–	–	–
CCOC(=O)C(=O)Nc1nc2c(s1)C(=O)c1ccccc1C2=O	–	–	–	28 µM	–	27.6 µM	–	–	29.6 µM	–	31 µM	–	37.6 µM	–	31.9 µM	–	–	–	–	–
